Here are results for 9 compounds from ChEMBL document CHEMBL1201862, “PubChem BioAssay data set” (2004).

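In this assay, cells in 96-well plates receive the compound at five concentrations for 48 hours. Endpoints are linearly interpolated between the surrounding concentrations. GI50: concentration for 50% inhibition of growth.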 Active and inactive are the calls of the source. No stated cut-off is given here; in the data, active = GI50 up to about 1.1 µM and inactive = higher.

Test systems include SK-MEL-2; MCF7; PC-3; IGROV-1; SF-268; ACHN; HCC 2998; RXF 393; K562; HCT-15; U-251; OVCAR-3; TK-10; HOP-62; SNB-19; SF-295.
What all share (test): NCI anticancer screen, dose series, 48 h

Consider `C[C@]12CCC(=O)C=C1CC[C@@H]1[C@@H]2[C@@H](O)C[C@@]2(C)[C@H]1CC[C@]2(O)C(=O)COC(=O)C1CCCC1`, for which the GI50 with SK-MEL-2, in the experiment on MCF7, in the experiment with PC-3, with IGROV-1, with SF-268 and in the experiment with ACHN was > 100 µM (inactive) throughout. Also, the GI50 with HCC 2998 is > 100 µM (inactive); in the experiment with RXF 393, > 100 µM (inactive); with K562 it was > 100 µM (inactive); in the experiment on HCT-15, over 100 µM; in the experiment on U-251 it was > 100 µM (inactive); in the experiment on OVCAR-3, > 100 µM (inactive). For the same compound, the GI50 with TK-10, in the experiment with HOP-62, in the experiment with SNB-19 and in the experiment with SF-295 was > 100 µM (inactive) throughout.
As to `CC(C)C1(O)C(=O)N(c2c(F)c(F)c(F)c(F)c2F)C(=S)N1CCSc1ccccc1` (centres undefined), the GI50 in the experiment on SK-MEL-2 is 17.7 µM (inactive); with MCF7, 17.2 µM (inactive); in the experiment with PC-3 it was 15.7 µM (inactive); with IGROV-1, 16.4 µM (inactive); in the experiment with SF-268 it was 18.4 µM (inactive); in the experiment with ACHN, 17.5 µM (inactive). For the same compound, the GI50 was 20.6 µM (inactive) with HCC 2998; 17.3 µM (inactive) in the experiment on RXF 393; 13 µM (inactive) in the experiment with K562; 17.9 µM with HCT-15; 18.2 µM (inactive) in the experiment on U-251; 16.4 µM (inactive) in the experiment with OVCAR-3. For the same compound, the GI50 in the experiment with TK-10 was 14.7 µM (inactive); in the experiment on HOP-62, 18.5 µM (inactive); with SNB-19, 17.8 µM (inactive); with SF-295 it was 17.3 µM (inactive).
Consider `Fc1cccc(C2ON=C(c3ccccc3)N2C23CC4CC(CC(C4)C2)C3)c1` (centres undefined), for which the GI50 in the experiment with SK-MEL-2, in the experiment on MCF7, with PC-3, in the experiment on IGROV-1, in the experiment with SF-268 and in the experiment with ACHN was > 10 µM (inactive) each time. In addition, the GI50 is > 10 µM (inactive) in the experiment on HCC 2998; > 10 µM (inactive) in the experiment with RXF 393; > 10 µM (inactive) in the experiment on K562; over 10 µM with HCT-15; > 10 µM (inactive) in the experiment on U-251; > 10 µM (inactive) with OVCAR-3. Also, the GI50 in the experiment with TK-10, with HOP-62, in the experiment on SNB-19 and with SF-295 was > 10 µM (inactive) in each case.
`CCOC(=O)/C=C(\C(=O)OCC)n1ccc(=O)n(Cc2cnnn2CCCCOC(C)=O)c1=O`: the GI50 with SK-MEL-2 is 14.7 µM (inactive); with MCF7 it was 4.79 µM (inactive); with PC-3 it was 9.4 µM (inactive); in the experiment with IGROV-1, 14 µM (inactive); in the experiment with SF-268, 15.6 µM (inactive); in the experiment on ACHN it was 1.83 µM (inactive). For the same compound, the GI50 with HCC 2998 was 18.4 µM (inactive); in the experiment on RXF 393, 0.697 µM (active); with K562, 2.37 µM (inactive); with HCT-15 it was 3.73 µM; in the experiment with U-251, 27.3 µM (inactive); in the experiment on OVCAR-3 it was 5.3 µM (inactive). In addition, the GI50 with TK-10 was 4.54 µM (inactive); in the experiment on HOP-62 it was 19.7 µM (inactive); in the experiment with SNB-19, 1.57 µM (inactive); in the experiment with SF-295, 27.4 µM (inactive).
As for `COc1ccc(/C=C2/SC(c3ccccc3)N(NC(=O)CCCCCCCCC(=O)NN3C(=O)/C(=C\c4ccc(OC)c(OC)c4)SC3c3ccccc3)C2=O)cc1OC` (centres undefined), the GI50 in the experiment with SK-MEL-2 is 52.7 µM (inactive); in the experiment on MCF7, 34 µM (inactive); in the experiment with PC-3, 76 µM (inactive); in the experiment on IGROV-1, 1.03 µM (active); in the experiment on SF-268, 69.3 µM (inactive); in the experiment with ACHN, 25.6 µM (inactive). Moreover, the GI50 in the experiment on HCC 2998 was > 100 µM (inactive); with RXF 393, 58.5 µM (inactive); in the experiment with K562, 6.59 µM (inactive); in the experiment with HCT-15, 55.2 µM; in the experiment on U-251 it was 57.3 µM (inactive); in the experiment with OVCAR-3, > 100 µM (inactive). For the same compound, the GI50 in the experiment on TK-10 is > 100 µM (inactive); in the experiment on HOP-62, 35 µM (inactive); in the experiment with SNB-19, 86.1 µM (inactive); in the experiment with SF-295, 24.2 µM (inactive).
With `CC(C)C(=O)Nc1cc(C(F)(F)F)ccc1[N+](=O)[O-]`, the GI50 with SK-MEL-2, with MCF7, in the experiment on PC-3, in the experiment on IGROV-1, with SF-268 and in the experiment on ACHN was > 100 µM (inactive) in each case. The GI50 in the experiment with HCC 2998 was > 100 µM (inactive); with RXF 393, > 100 µM (inactive); in the experiment with K562, 50.9 µM (inactive); in the experiment with HCT-15 it was over 100 µM; in the experiment with U-251 it was > 100 µM (inactive); in the experiment with OVCAR-3, > 100 µM (inactive). The GI50 with TK-10, with HOP-62, in the experiment with SNB-19 and in the experiment with SF-295 was > 100 µM (inactive) in each case.
As to `N#CC(=S)Nc1ccc(F)cc1`, the GI50 in the experiment with SK-MEL-2 was > 100 µM (inactive); in the experiment on MCF7, 64.7 µM (inactive); with PC-3 it was 57.7 µM (inactive); in the experiment with IGROV-1 it was 32.1 µM (inactive); in the experiment on SF-268, 96.8 µM (inactive); in the experiment with ACHN, 60 µM (inactive). Further, the GI50 with HCC 2998 is 45.4 µM (inactive); in the experiment with RXF 393 it was 42.1 µM (inactive); in the experiment on K562, 23.9 µM (inactive); with HCT-15 it was 88.7 µM; in the experiment on U-251, 34.4 µM (inactive); in the experiment with OVCAR-3 it was 56.4 µM (inactive). For the same compound, the GI50 in the experiment on TK-10 was 39.1 µM (inactive); in the experiment with HOP-62, > 100 µM (inactive); in the experiment on SNB-19, > 100 µM (inactive); with SF-295, 51.6 µM (inactive).
For the compound `CC1CCC2C(C(=O)O[C@H]3C4CCO[C@@H](OC5OC(CO)C(O)C(O)C5O)C4[C@@]4(CO)O[C@@H]34)=CO[C@@H](OC3OC(CO)C(O)C(O)C3O)C12` (some centres undefined), the GI50 with SK-MEL-2, in the experiment on MCF7, in the experiment on PC-3, with IGROV-1, with SF-268 and with ACHN was > 10 µM (inactive) throughout. Also, the GI50 in the experiment with HCC 2998 was > 10 µM (inactive); with RXF 393, > 10 µM (inactive); with K562, > 10 µM (inactive); in the experiment on HCT-15 it was over 10 µM; in the experiment on U-251, > 10 µM (inactive); with OVCAR-3, > 10 µM (inactive). In addition, the GI50 in the experiment on TK-10, with HOP-62, in the experiment on SNB-19 and with SF-295 was > 10 µM (inactive) in each case.
For the compound `COC(=O)C1OC2(CCCC3CC32)O[C@H]1C(=O)OC` (some centres undefined), the GI50 in the experiment with SK-MEL-2, in the experiment on MCF7, in the experiment with PC-3, with IGROV-1, with SF-268 and in the experiment on ACHN was > 100 µM (inactive) throughout. For the same compound, the GI50 in the experiment with HCC 2998 was > 100 µM (inactive); with RXF 393, > 100 µM (inactive); in the experiment with K562, > 100 µM (inactive); with HCT-15, over 100 µM; with U-251, > 100 µM (inactive); with OVCAR-3 it was > 100 µM (inactive). The GI50 in the experiment on TK-10, in the experiment on HOP-62, with SNB-19 and with SF-295 was > 100 µM (inactive) each time.
